Reference: ChEMBL document CHEMBL3991601, “The target landscape of clinical kinase drugs” (Science, 2017)
Active and inactive are the calls of the source. Rule as the data show it: actives have a measured Kd and inactives only a lower limit.

How the values were obtained:
[1] = molecular target: Glycogen synthase kinase-3 alpha (Homo sapiens, UniProt P49840)
[2] = molecular target: T1, Serine/threonine-protein kinase TAO1 (Homo sapiens, UniProt Q7L7X3)
T1 sequence (Q7L7X3 whole entry): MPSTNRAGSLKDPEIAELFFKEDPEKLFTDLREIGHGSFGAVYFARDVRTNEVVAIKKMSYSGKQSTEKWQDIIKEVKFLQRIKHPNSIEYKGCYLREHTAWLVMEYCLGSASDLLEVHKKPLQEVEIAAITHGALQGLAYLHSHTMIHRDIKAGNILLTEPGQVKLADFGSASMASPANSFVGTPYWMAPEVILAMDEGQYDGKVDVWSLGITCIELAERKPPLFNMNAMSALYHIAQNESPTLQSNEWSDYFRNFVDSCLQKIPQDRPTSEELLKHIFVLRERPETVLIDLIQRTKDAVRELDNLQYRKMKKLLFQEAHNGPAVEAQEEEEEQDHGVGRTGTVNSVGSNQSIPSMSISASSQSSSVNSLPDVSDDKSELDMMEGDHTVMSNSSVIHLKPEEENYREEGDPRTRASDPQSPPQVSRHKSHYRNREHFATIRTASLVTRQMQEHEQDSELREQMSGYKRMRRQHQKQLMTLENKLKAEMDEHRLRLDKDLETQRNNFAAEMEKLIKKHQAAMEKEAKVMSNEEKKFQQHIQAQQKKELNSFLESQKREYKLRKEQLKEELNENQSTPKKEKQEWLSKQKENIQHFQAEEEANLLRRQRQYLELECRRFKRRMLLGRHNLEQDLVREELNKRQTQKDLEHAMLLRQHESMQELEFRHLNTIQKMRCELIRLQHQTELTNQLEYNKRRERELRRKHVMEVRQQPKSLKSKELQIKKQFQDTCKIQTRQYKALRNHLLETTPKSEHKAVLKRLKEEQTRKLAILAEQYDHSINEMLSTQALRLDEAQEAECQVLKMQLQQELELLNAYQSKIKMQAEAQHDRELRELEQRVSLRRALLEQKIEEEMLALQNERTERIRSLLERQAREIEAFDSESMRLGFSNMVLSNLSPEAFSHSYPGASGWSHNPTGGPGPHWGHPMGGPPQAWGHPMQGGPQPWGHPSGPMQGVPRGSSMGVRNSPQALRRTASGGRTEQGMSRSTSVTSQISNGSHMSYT

[3] = molecular target: Wee1-like protein kinase (Homo sapiens, UniProt P30291)
[4] = molecular target: Dual specificity mitogen-activated protein kinase kinase 2 (Homo sapiens, UniProt P36507)
[5] = molecular target: T2, Serine/threonine-protein kinase TAO3 (Homo sapiens, UniProt Q9H2K8)
T2 sequence (Q9H2K8 whole entry): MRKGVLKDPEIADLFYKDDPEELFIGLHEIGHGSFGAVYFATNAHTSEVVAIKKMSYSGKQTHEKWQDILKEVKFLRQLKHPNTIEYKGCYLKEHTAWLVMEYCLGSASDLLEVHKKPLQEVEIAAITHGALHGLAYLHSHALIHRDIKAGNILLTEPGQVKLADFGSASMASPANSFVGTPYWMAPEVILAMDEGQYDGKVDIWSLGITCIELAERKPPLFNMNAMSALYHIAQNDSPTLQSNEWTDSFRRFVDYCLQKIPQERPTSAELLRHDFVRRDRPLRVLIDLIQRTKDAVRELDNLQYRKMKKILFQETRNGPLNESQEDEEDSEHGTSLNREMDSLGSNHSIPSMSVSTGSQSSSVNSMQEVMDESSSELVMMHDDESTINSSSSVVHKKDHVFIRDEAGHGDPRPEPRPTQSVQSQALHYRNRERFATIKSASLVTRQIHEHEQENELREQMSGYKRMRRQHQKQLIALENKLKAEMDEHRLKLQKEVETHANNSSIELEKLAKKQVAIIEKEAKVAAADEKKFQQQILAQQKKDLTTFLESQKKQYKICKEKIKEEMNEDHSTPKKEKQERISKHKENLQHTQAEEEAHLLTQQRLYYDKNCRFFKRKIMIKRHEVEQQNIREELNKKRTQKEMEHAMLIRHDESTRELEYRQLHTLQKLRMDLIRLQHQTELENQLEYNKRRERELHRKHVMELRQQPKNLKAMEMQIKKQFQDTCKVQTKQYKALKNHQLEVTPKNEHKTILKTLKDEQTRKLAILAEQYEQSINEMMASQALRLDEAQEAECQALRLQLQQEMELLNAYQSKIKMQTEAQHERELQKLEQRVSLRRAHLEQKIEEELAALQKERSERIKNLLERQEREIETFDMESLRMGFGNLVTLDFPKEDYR

[6] = molecular target: T3, Bone morphogenetic protein receptor type-2 (Homo sapiens, UniProt Q13873)
T3 sequence (Q13873 whole entry): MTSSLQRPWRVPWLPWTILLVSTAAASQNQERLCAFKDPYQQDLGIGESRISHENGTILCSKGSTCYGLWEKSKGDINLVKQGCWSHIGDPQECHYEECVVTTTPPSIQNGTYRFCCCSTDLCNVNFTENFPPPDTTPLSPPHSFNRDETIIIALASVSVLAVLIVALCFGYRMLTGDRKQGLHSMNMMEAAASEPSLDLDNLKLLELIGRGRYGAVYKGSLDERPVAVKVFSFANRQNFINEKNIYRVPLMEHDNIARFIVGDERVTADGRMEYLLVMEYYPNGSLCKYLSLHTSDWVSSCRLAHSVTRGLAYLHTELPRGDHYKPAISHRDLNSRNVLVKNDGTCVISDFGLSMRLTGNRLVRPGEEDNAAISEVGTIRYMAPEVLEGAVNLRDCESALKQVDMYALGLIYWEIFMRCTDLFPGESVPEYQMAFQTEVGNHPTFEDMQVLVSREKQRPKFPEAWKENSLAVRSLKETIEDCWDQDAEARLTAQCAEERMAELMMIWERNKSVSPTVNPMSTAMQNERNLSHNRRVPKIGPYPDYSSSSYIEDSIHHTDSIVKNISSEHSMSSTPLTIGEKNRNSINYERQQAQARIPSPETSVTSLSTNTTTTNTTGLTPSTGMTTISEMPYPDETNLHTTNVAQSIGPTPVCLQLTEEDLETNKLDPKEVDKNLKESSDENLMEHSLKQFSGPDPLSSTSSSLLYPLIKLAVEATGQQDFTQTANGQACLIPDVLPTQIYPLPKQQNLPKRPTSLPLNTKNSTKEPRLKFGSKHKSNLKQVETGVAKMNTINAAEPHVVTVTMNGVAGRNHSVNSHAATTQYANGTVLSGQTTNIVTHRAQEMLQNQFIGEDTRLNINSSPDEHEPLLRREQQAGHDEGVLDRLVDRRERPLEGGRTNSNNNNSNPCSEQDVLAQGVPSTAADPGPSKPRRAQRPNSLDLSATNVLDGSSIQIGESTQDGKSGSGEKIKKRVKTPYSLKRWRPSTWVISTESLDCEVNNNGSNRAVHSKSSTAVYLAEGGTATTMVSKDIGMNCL
Also: in the data inactive means no Kd found up to 30 µM.

Sequence of Glycogen synthase kinase-3 alpha (P49840 whole entry): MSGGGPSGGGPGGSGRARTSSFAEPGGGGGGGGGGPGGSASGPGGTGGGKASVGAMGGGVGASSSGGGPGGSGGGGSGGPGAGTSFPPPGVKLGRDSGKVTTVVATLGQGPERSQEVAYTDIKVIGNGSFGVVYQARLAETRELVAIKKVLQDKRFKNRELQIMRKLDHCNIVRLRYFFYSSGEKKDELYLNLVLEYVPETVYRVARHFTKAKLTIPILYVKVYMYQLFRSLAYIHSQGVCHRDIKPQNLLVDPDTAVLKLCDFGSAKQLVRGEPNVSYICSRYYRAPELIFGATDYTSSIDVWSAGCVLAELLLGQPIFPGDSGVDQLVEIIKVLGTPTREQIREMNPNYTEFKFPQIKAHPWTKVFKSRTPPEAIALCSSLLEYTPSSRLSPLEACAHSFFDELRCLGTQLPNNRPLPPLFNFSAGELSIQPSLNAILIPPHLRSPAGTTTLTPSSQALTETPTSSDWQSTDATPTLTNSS
Sequence of Dual specificity mitogen-activated protein kinase kinase 2 (P36507 whole entry): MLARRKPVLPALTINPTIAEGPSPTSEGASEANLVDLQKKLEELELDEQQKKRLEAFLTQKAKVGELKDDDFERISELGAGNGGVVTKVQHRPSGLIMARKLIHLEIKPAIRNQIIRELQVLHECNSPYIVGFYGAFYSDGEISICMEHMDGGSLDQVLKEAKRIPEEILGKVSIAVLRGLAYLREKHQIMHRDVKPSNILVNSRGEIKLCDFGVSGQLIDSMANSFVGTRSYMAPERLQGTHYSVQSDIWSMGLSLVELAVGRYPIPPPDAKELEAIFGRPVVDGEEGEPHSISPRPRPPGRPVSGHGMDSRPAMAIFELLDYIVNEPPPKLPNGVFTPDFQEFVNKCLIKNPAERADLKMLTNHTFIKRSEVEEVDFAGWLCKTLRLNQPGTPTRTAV
Sequence of Wee1-like protein kinase (P30291 whole entry): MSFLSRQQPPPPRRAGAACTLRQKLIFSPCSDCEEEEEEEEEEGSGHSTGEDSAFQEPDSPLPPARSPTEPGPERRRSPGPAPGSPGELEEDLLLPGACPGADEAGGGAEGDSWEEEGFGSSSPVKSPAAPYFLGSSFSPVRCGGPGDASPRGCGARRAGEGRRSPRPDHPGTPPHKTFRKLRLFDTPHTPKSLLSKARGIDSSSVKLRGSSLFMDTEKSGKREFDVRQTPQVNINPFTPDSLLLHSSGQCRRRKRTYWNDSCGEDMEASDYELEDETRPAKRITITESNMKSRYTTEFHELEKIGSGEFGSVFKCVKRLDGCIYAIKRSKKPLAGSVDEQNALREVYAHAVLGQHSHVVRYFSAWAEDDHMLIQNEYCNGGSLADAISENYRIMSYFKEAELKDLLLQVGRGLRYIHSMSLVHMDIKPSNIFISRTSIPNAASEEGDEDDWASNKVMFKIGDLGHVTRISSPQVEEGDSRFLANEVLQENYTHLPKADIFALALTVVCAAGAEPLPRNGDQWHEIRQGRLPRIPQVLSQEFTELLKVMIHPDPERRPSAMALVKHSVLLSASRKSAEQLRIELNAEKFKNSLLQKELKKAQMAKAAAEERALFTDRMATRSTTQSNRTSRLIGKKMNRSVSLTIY

| Compound | Kd [1] | Kd [2] | Kd [3] | Kd [4] | Kd [5] | Kd [6] |
| --- | --- | --- | --- | --- | --- | --- |
| COc1ncc(-c2ccc3nccc(-c4ccnnc4)c3c2)cc1NS(=O)(=O)c1ccc(F)cc1F [OMIPALISIB] | > 30 µM (inactive) | > 30 µM (inactive) | > 30 µM (inactive) | > 30 µM (inactive) | > 30 µM (inactive) | > 30 µM (inactive) |
| CCCCCCCCCCCCCCCCCCOP(=O)([O-])OC1CC[N+](C)(C)CC1 [PERIFOSINE] | > 30 µM (inactive) | > 30 µM (inactive) | > 30 µM (inactive) | > 30 µM (inactive) | > 30 µM (inactive) | > 30 µM (inactive) |
| Cc1cnc(NC(=O)Nc2cc(Br)c(C)cc2OC[C@@H]2CNCCO2)cn1 [RABUSERTIB] | > 30 µM (inactive) | > 30 µM (inactive) | > 30 µM (inactive) | > 30 µM (inactive) | > 30 µM (inactive) | > 30 µM (inactive) |
| CNC(=O)c1cc(Oc2ccc(NC(=O)Nc3cc(C(C)(C)C)nn3-c3ccc4ncccc4c3)c(F)c2)ccn1 [REBASTINIB] | > 30 µM (inactive) | > 30 µM (inactive) | > 30 µM (inactive) | > 30 µM (inactive) | 14.2 µM (active) | > 30 µM (inactive) |
| CO[C@H]1C[C@@H]2CC[C@@H](C)[C@@](O)(O2)C(=O)C(=O)N2CCCC[C@H]2C(=O)O[C@H]([C@H](C)C[C@@H]2CC[C@@H](OP(C)(C)=O)[C@H](OC)C2)CC(=O)[C@H](C)/C=C(\C)[C@@H](O)[C@@H](OC)C(=O)[C@H](C)C[C@H](C)/C=C/C=C/C=C/1C [RIDAFOROLIMUS] | > 30 µM (inactive) | > 30 µM (inactive) | > 30 µM (inactive) | > 30 µM (inactive) | > 30 µM (inactive) | > 30 µM (inactive) |
| N#CC1(c2ccc(NC(=O)c3cccnc3NCc3ccncc3)cc2)CCCC1 [RIVOCERANIB] | > 30 µM (inactive) | > 30 µM (inactive) | > 30 µM (inactive) | > 30 µM (inactive) | > 30 µM (inactive) | > 30 µM (inactive) |
| CN1CCN(CCOc2cc(OC3CCOCC3)c3c(Nc4c(Cl)ccc5c4OCO5)ncnc3c2)CC1 [SARACATINIB] | > 30 µM (inactive) | > 30 µM (inactive) | > 30 µM (inactive) | > 30 µM (inactive) | > 30 µM (inactive) | > 30 µM (inactive) |
| Cn1cc(-c2cnn3c(N)c(Br)c([C@@H]4CCCNC4)nc23)cn1 [SCH-900776] | > 30 µM (inactive) | > 30 µM (inactive) | > 30 µM (inactive) | 2.36 µM (active) | > 30 µM (inactive) | > 30 µM (inactive) |
| CO[C@H]1C[C@@H]2CC[C@@H](C)[C@@](O)(O2)C(=O)C(=O)N2CCCC[C@H]2C(=O)O[C@H]([C@H](C)C[C@@H]2CC[C@@H](O)[C@H](OC)C2)CC(=O)[C@H](C)/C=C(\C)[C@@H](O)[C@@H](OC)C(=O)[C@H](C)C[C@H](C)/C=C/C=C/C=C/1C [SIROLIMUS] | > 30 µM (inactive) | > 30 µM (inactive) | > 30 µM (inactive) | > 30 µM (inactive) | > 30 µM (inactive) | > 30 µM (inactive) |
| CO[C@H]1C[C@@H]2CC[C@@H](C)[C@@](O)(O2)C(=O)C(=O)N2CCCC[C@H]2C(=O)O[C@H]([C@H](C)C[C@@H]2CC[C@@H](OC(=O)C(C)(CO)CO)[C@H](OC)C2)CC(=O)[C@H](C)/C=C(\C)[C@@H](O)[C@@H](OC)C(=O)[C@H](C)C[C@H](C)/C=C/C=C/C=C/1C [TEMSIROLIMUS] | > 30 µM (inactive) | > 30 µM (inactive) | > 30 µM (inactive) | > 30 µM (inactive) | > 30 µM (inactive) | > 30 µM (inactive) |
| COc1cc2c(Nc3ccc(Cl)c(Cl)c3F)ncnc2cc1OC[C@@H]1C[C@@H]2CN(C)C[C@@H]2C1 [TESEVATINIB] | > 30 µM (inactive) | > 30 µM (inactive) | > 30 µM (inactive) | > 30 µM (inactive) | > 30 µM (inactive) | > 30 µM (inactive) |

Continued, values first:

| Kd [1] | Kd [2] | Kd [3] | Kd [4] | Kd [5] | Kd [6] | Compound |
| --- | --- | --- | --- | --- | --- | --- |
| 2.09 µM (active) | > 30 µM (inactive) | 2.77 µM (active) | > 30 µM (inactive) | > 30 µM (inactive) | > 30 µM (inactive) | Cc1nc(Nc2n[nH]c3c2CN(C(=O)N[C@H](CN(C)C)c2ccccc2)C3(C)C)c2sccc2n1 [PF-03758309] |
| > 30 µM (inactive) | > 30 µM (inactive) | > 30 µM (inactive) | > 30 µM (inactive) | > 30 µM (inactive) | > 30 µM (inactive) | O=c1[nH]ccc2cc(OC3CCNCC3)ccc12 [SAR-407899 FREE BASE] |
| 22.5 µM (active) | > 30 µM (inactive) | > 30 µM (inactive) | 3.95 µM (active) | > 30 µM (inactive) | > 30 µM (inactive) | CCS(=O)(=O)c1cccc(-c2cc(C(=O)NC3CCN(C)CC3)c(C)c3[nH]c4ncc(C)cc4c23)c1 [TAK-901] |
| > 30 µM (inactive) | > 30 µM (inactive) | > 30 µM (inactive) | > 30 µM (inactive) | > 30 µM (inactive) | > 30 µM (inactive) | O=C(Cc1ccc(-c2ccc(OCCN3CCOCC3)cc2)cn1)NCc1ccccc1 [TIRBANIBULIN] |
| > 30 µM (inactive) | > 30 µM (inactive) | > 30 µM (inactive) | > 30 µM (inactive) | > 30 µM (inactive) | > 30 µM (inactive) | O=C1NC(=O)[C@@H](c2cn3c4c(cccc24)CCC3)[C@@H]1c1c[nH]c2ccccc12 [TIVANTINIB] |
